In the experiment the target is T1, Kv1.5 (Homo sapiens, UniProt P22460).
T1 construct: expressed in transfected cells; host or cells: HEK or LTK- cells
Description: Kv1.5 Patch Clamp EP. The experiment is classed as cell-based. To be noted: 1.0 μM, single point; whole cell patch clamp, Kv1.5 stably over expressed in HEK or LTK- cells. The protocol: The external solution is standard Tyrodes solution. […] Inhibition was measured at the end of the 1 second pulses and expressed relative to controls. Initial Kv1.5 inhibition is estimated by single point determinations done at 1 μM.
(The patch-clamp technique gives a direct electrical read-out from membranes.)

T1 sequence (P22460 whole entry): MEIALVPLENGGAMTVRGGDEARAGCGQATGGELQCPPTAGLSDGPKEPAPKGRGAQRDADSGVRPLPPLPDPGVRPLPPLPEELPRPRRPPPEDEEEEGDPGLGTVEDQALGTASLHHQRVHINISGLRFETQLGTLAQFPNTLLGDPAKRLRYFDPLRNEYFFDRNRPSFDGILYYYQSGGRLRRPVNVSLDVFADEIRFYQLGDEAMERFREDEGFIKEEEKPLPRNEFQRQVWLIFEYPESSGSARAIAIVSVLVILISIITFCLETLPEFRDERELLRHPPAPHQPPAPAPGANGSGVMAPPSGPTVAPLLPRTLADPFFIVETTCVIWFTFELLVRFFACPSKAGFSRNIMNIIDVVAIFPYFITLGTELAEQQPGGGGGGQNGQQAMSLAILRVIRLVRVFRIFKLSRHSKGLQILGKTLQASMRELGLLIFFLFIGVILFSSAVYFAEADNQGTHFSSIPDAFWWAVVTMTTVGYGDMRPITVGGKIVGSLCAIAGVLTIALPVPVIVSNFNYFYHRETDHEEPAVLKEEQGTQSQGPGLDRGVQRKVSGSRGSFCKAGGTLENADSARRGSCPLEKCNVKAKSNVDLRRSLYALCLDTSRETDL

The inhibition is the relative decrease from the control value, in per cent. A higher inhibition goes with strong suppression. The compound `COc1ccc(C2CN(N)C(=O)N2CCc2ccc(OC(F)F)cc2)cc1` (stereo not drawn) [Compound 154, 1-amino-3-{2-[4-(difluoromethoxy)phenyl]ethyl}-4-(4-methoxyphenyl)imidazolidin-2-one] yielded an inhibition at 1 µM of 7%.
Still for that read-out and setting: the result for `COc1ccc(CCN2C(=O)N(NS(=O)(=O)Cc3cccnc3)CC2c2ccc(F)cc2)cc1` (stereo not drawn) [Compound 139, N-{4-(4-fluorophenyl)-3-[2-(4-methoxyphenyl)ethyl]-2-oxoimidazolidin-1-yl}-1-pyridin-3-ylmethanesulfonamide] reads 14%.
`COc1ccc(CCN2C(=O)N(NC(N)=O)CC2c2ccc(C)c(C)c2)cc1` (stereo not drawn) [Compound 70, {2-Oxo-3-[2-(4-methoxyphenyl)ethyl]-4-(3,4-dimethylphenyl)-imidazolidin-1-yl}-urea] came in with an inhibition at 1 µM of 22%.
Compound `COc1ccc(CCN2C(=O)N(NS(C)(=O)=O)CC2c2ccc3ncccc3c2)cc1` (stereo not drawn) [Compound 143, N-{3-[2-(4-methoxyphenyl)ethyl]-2-oxo-4-quinolin-6-ylimidazolidin-1-yl}methanesulfonamide] had an inhibition at 1 µM of 21%.
As for `COc1ccc(CCN2C(=O)N(NS(C)(=O)=O)CC2c2ccc(F)cc2)cc1` (stereo not drawn) [Compound 137, N-{4-(4-fluorophenyl)-3-[2-(4-methoxyphenyl)ethyl]-2-oxoimidazolidin-1-yl}methanesulfonamide], the inhibition at 1 µM came to 4%.
`COc1ccc(CCN2C(=O)N(NS(=O)(=O)CC(=O)OCC3c4ccccc4-c4ccccc43)CC2c2ccc(C3CC3)cc2)cc1` (stereo not drawn) [Compound 102, 1-[[2-(9H-fluoren-9-ylmethoxy)-2-oxoethyl]sulfonylamino]-3-[2-(4-methoxyphenyl)ethyl]-4-(4-cyclopropylphenyl)-2-imidazolidinone] showed an inhibition at 1 µM of 6%.
Same read-out and setting: the same measure for `COc1ccc(CCN2C(=O)N(NCc3ccncc3)CC2c2ccc(C(C)(C)C)cc2)cc1` (stereo not drawn) [Compound 95, 1-[(Pyridin-4-ylmethyl)amino]-3-[2-(4-methoxyphenyl)ethyl]-4-(4-(tert-butyl)phenyl)-2-imidazolidinone]: 43%; for `CCN(CC)c1ccc(CNN2CC(c3ccc(C(C)(C)C)cc3)N(CCc3ccc(OC)cc3)C2=O)cc1` (stereo not drawn) [Compound 123, 4-(4-tert-butylphenyl)-1-{[4-(diethylamino)benzyl]amino}-3-[2-(4-methoxyphenyl)ethyl]imidazolidin-2-one]: 25%; for `COc1ccc(CCN2C(=O)N(NS(=O)(=O)CC(=O)O)CC2c2ccc(C3CC3)cc2)cc1` (stereo not drawn) [Compound 174, [[[4-(4-cyclopropylphenyl)-3-[2-(4-methoxyphenyl)ethyl]-2-oxo-imidazolidin-1-yl]amino]sulfonyl]acetic acid]: 9%.
With `COc1ccc(CCN2C(=O)N(NC(=O)c3cnccn3)CC2c2ccc(C(C)(C)C)cc2)cc1` (stereo not drawn) [Compound 147, N-{4-(4-tert-butylphenyl)-3-[2-(4-methoxyphenyl)ethyl]-2-oxoimidazolidin-1-yl}pyrazine-2-carboxamide], the inhibition at 1 µM came out at 42%.
The compound `CCOc1ccc(CCN2C(=O)N(NS(C)(=O)=O)CC2c2ccc(OC)cc2)cc1` (stereo not drawn) [Compound 113, N-{3-[2-(4-ethoxyphenyl)ethyl]-4-(4-methoxyphenyl)-2-oxoimidazolidin-1-yl}methanesulfonamide] showed an inhibition at 1 µM of 5%.
`COc1ccc(CCN2C(=O)N(NCC3CC3)CC2c2ccc(C)c(C)c2)cc1` (stereo not drawn) [Compound 86, 1-(Cyclopropylmethylamino)-3-[2-(4-methoxyphenyl)ethyl]-4-(3,4-dimethylphenyl)-2-imidazolidinone]: testing at 1 µM gave an inhibition of 20%.
For `COc1ccc(CCN2C(=O)N(NS(=O)(=O)c3cccnc3)CC2c2ccc(OC)cc2)cc1` (stereo not drawn) [Compound 62, 1-[(Pyridin-3-yl)sulfonylamino]-3-[2-(4-methoxyphenyl)ethyl]-4-(4-methoxyphenyl)-2-imidazolidinone], the inhibition at 1 µM came out at 26%.
Consider `COc1ccc(CCN2C(=O)N(NS(C)(=O)=O)CC2c2ccc3c(c2)OC(F)(F)O3)cc1` (stereo not drawn) [Compound 16, 1-(Methylsulfonylamino)-3-[2-(4-methoxyphenyl)ethyl]-4-(2,2-difluorobenzo-[1,3]dioxol-5-yl)-2-imidazolidinone], for which the inhibition at 1 µM stood at 48%.
`CC(C)(C)c1ccc(C2CN(NS(C)(=O)=O)C(=O)N2CCc2ccc(OCCN3CCOCC3)cc2)cc1` (stereo not drawn) [Compound 169, N-[4-(4-tert-butylphenyl)-3-{2-[4-(2-morpholin-4-ylethoxy)phenyl]ethyl}-2-oxoimidazolidin-1-yl]methanesulfonamide] gave an inhibition at 1 µM of 16%.
Consider `COc1ccc(CCN2C(=O)N(NS(C)(=O)=O)CC2c2ccc3c(c2)OCO3)cc1` (stereo not drawn) [Compound 15, 1-(Methylsulfonylamino)-3-[2-(4-methoxyphenyl)ethyl]-4-(benzo[1,3]dioxol-5-yl)-2-imidazolidinone], for which the inhibition at 1 µM was 46%.
For `CNC(=O)N1CCN(N2CC(c3ccc(C(C)(C)C)cc3)N(CCc3ccc(OC)cc3)C2=O)CC1` (stereo not drawn) [Compound 117, 4-{4-(4-tert-butylphenyl)-3-[2-(4-methoxyphenyl)ethyl]-2-oxoimidazolidin-1-yl}-N-methylpiperazine-1-carboxamide], testing at 1 µM gave an inhibition of 19%.
Turning to `COc1ccc(CCN2C(=O)N(N3CCN(C(N)=O)CC3)CC2c2ccc(C(C)(C)C)cc2)cc1` (stereo not drawn) [Compound 150, 4-{4-(4-tert-butylphenyl)-3-[2-(4-methoxyphenyl)ethyl]-2-oxoimidazolidin-1-yl}piperazine-1-carboxamide], the inhibition at 1 µM was found to be 17%.
`COc1ccc(CCN2C(=O)N(N3CCNCC3)CC2c2ccc(C(C)(C)C)cc2)cc1` (stereo not drawn) [Compound 112, 4-(4-tert-butylphenyl)-3-[2-(4-methoxyphenyl)ethyl]-1-piperazin-1-ylimidazolidin-2-one] returned an inhibition at 1 µM of 8%.
On the same count and under the same terms, the same measure for `COc1ccc(CCN2C(=O)N(NS(C)(=O)=O)CC2C2(c3ccccc3)CC2)cc1` (stereo not drawn) [Compound 140, N-{3-[2-(4-methoxyphenyl)ethyl]-2-oxo-4-(1-phenylcyclopropyl)imidazolidin-1-yl}methanesulfonamide]: 6%.
As for `COc1ccc(CCN2C(=O)N(NS(=O)(=O)CS(C)(=O)=O)CC2c2ccc(OC)cc2)cc1` (stereo not drawn) [Compound 153, N-{4-(4-methoxyphenyl)-3-[2-(4-methoxyphenyl)ethyl]-2-oxoimidazolidin-1-yl}-1-(methylsulfonyl)methanesulfonamide], the inhibition at 1 µM turned out to be 12%.
Consider `COc1ccc(CCN2C(=O)N(NS(C)(=O)=O)CC2c2ccc(OC(C)C)cc2)cc1` (stereo not drawn) [Compound 14, 1-(Methylsulfonylamino)-3-[2-(4-methoxyphenyl)ethyl]-4-[(4-isopropyloxy)-phenyl]-2-imidazolidinone], for which the “Kv1.5% inhibition @ 1.0 μM” value worked out at 28%.
`COc1ccc(CN2C(=O)N(NS(C)(=O)=O)CC2c2ccc(C3CC3)cc2)cc1` (stereo not drawn) [Compound 19, 1-(Methylsulfonylamino)-3-[(4-methoxyphenyl)methyl]-4-(4-cyclopropylphenyl)-2-imidazolidinone] yielded an inhibition at 1 µM of 27%.
The same measure, in the same setting: the result for `COc1ccc(CCN2C(=O)N(N)CC2c2ccc(OC(F)(F)F)cc2)cc1` (stereo not drawn) [Compound 110, 1-amino-3-[2-(4-methoxyphenyl)ethyl]-4-[4-(trifluoromethoxy)phenyl]imidazolidin-2-one] reads 7%.
In turn, `COc1ccc(CCCN2C(=O)N(N)CC2c2ccc(OC)cc2)cc1` (stereo not drawn) [Compound 3, 1-Amino-4-(4-methoxyphenyl)-3-[3-(4-methoxyphenyl)propyl]-2-imidazolidinone] registered an inhibition at 1 µM of 13%.
Same read-out and setting: the result for `COc1ccc(CCN2C(=O)N(NCc3cc[n+]([O-])cc3)CC2c2ccc(C)c(C)c2)cc1` (stereo not drawn) [Compound 161, 4-(3,4-dimethylphenyl)-3-[2-(4-methoxyphenyl)ethyl]-1-{[(1-oxidopyridin-4-yl)methyl]amino}imidazolidin-2-one] reads 8%.
As for `COc1ccc(CCN2C(=O)N(NS(=O)(=O)CC#N)CC2c2ccc(OC)cc2)cc1` (stereo not drawn) [Compound 41, 1-(Cyanomethylsulfonylamino)-3-[2-(4-methoxyphenyl)ethyl]-4-[(4-methoxy)-phenyl]-2-imidazolidinone], the inhibition at 1 µM was 42%.
On the same count and under the same terms, the result for `COc1ccc(CCN2C(=O)N(NS(C)(=O)=O)CC2C2(c3ccc(F)cc3)CC2)cc1` (stereo not drawn) [Compound 165, N-{4-[1-(4-fluorophenyl)cyclopropyl]-3-[2-(4-methoxyphenyl)ethyl]-2-oxoimidazolidin-1-yl}methanesulfonamide] reads 11%; that for `COCCOc1ccc(C2CN(NS(C)(=O)=O)C(=O)N2CCc2ccc(OC)cc2)cc1` (stereo not drawn) [Compound 151, N-{4-[4-(2-methoxyethoxy)phenyl]-3-[2-(4-methoxyphenyl)ethyl]-2-oxoimidazolidin-1-yl}methanesulfonamide], 8%; that for `COc1ccc(CCN2C(=O)N(N)CC2c2ccc(C)cc2)cc1` (stereo not drawn) [Compound 159, 1-amino-3-[2-(4-methoxyphenyl)ethyl]-4-(4-methylphenyl)imidazolidin-2-one], 4%.
Compound `COc1ccc(CCN2C(=O)N(N)CC2C2(c3ccccc3)CC2)cc1` (stereo not drawn) [Compound 156, 1-amino-3-[2-(4-methoxyphenyl)ethyl]-4-(1-phenylcyclopropyl)imidazolidin-2-one] yielded an inhibition at 1 µM of 7%.
Same read-out and setting: the result for `COc1ccc(CCN2C(=O)N(NS(=O)(=O)C(F)(F)F)CC2c2ccc(C(C)(C)C)cc2)cc1` (stereo not drawn) [Compound 148, N-{4-(4-tert-butylphenyl)-3-[2-(4-methoxyphenyl)ethyl]-2-oxoimidazolidin-1-yl}-1,1,1-trifluoromethanesulfonamide] reads 2%; that for `COc1ccc(CCN2C(=O)N(NCc3ccccn3)CC2c2ccc(C)c(C)c2)cc1` (stereo not drawn) [Compound 93, 1-[(Pyridin-2-ylmethyl)amino]-3-[2-(4-methoxyphenyl)ethyl]-4-(3,4-dimethylphenyl)-2-imidazolidinone], 46%.
